Assays:
[1] = Volatility: loss of dicamba from tank mix on petri dish; format: physicochemical; conditions: 70° C., 24 h
Procedure: The volatility was determined by analyzing the loss of material by HLPL at 70° C. after 24 h at atmospheric pressure. A sample of the aqueous tank mix (300 l/ha) was placed on the petri dish with a defined area (corresponding to a desired field application rate, such as 500 g/ha pesticide).
The application rate was 500 g/ha dicamba (free acid), 1000 g/ha potassium glyphosate, 300 g/ha Genamin® T050 (“Ad2”), 300 g/ha Preference® (“Ad3”) and optionally 250, 500 or 1000 g/ha K2CO3. Deionised water (hardness <1° dH) was used to prepare the samples. Dicamba BAPMA refers to the bis(3-aminopropyl)methylamine salt of dicamba.

[2] = pH of tank mix; format: physicochemical
Procedure: According to the invention, an aqueous tank mix which has a tank mix acidity of at least pH 5.0 was prepared. Preferably, the tank mix acidity corresponds to a pH of at least 6.0, better of at least 7.0, more preferably of at least 7.5, especially preferred of at least 8.0 and in particular of at least 8.5. The tank mix acidity may correspond to a pH of up to 13.0, preferably of up to 11.0 and in particular of up to 9.0. The tank mix acidity is usually determined as pH value at 20° C. without dilution of the tank mix.

[3] = system: Soya (glycine max) Variant Deltapine; experiment: Biological evaluation of low phytotoxicity on glyphosate-resistant soya; format: in vivo; conditions: glyphosate tank mixes
Procedure: For the greenhouse tests, maize (cultivar Amadeo) and Chenopodium album was sown or potted in loamy sandy soil to a depth of 1-2 cm. When the plants had reached a growth height of 10 to 25 cm (around 10 to 21 days after sowing), the spray mixtures were applied to the plants in a spraying cabin.
The temperatures in the experimental period, which lasted for 3 to 4 weeks, were between 18-35° C. During this time, the experimental plants received optimum watering, with nutrients being supplied via the water used for watering.
The herbicidal activity was evaluated by awarding scores to the treated plants in comparison to the untreated control plants (Table 1 and 2). The evaluation scale ranges from 0% to 100% activity. 100% activity means the complete death at least of those parts of the plant that are above ground. Conversely, 0% activity means that there were no differences between treated and untreated plants.
The biological evaluation was made as described in Example 6. The tank mixes were applied at a application rate of 375 l/ha (125 or 250 g of glyphosate free acid/ha and 300 g of adjuvant/ha). The adjuvant Ad1 is an aqeuous solution of 200 g/l Genamin® T150 (a tallow fatty amine ethoxylate with 15 EO). The adjuvant Ad2 is Genamin® T050 (a tallow fatty amine ethoxylate with 5 EO).
Soya (glycine max) Variant Deltapine was genetically engineered to resist glyphosate.

[4] = typical value; cited from earlier work

## CN(CCCN)CCCN.COc1c(Cl)ccc(Cl)c1C(=O)O [Dicamba BAPMA, bis(3-aminopropyl)methylamine salt of dicamba]
[1]; 500 g/ha dicamba, 1000 g/ha potassium glyphosate, 300 g/ha Ad2, 300 g/ha Ad3, deionised water
  Loss of dicamba, Loss (wt %): <1 wt %
[2]; Table 6 tank mixes, deionised water (hardness <1° dH)
  pH of tank mix: 6.3

## COc1c(Cl)ccc(Cl)c1C(=O)O [Dicamba free acid, dicamba]
[1]; atmospheric pressure, application rate 500 g/ha dicamba
  Loss of dicamba, Loss (wt %): 80 wt %
[2]; Table 5 tank mixes, 500 g/ha dicamba, 300 l/ha
  pH of tank mix: 3.0

## O=C([O-])[O-].[K+].[K+] [Example K2CO3, K2CO3]
[3]
  phytotoxity effect on plants of addition of K2CO3: no phytotoxity effect

## O=C(O)CNCP(=O)(O)O [glyphosate]
[4]
  pKa for the amine: 11.0
  pKa for the carboxylic acid: 2.3
  pKa for the first phosphonic acid: 0.8
  pKa for the second phosphonic acid: 6.0
